Results from patent US9505744B2, “Solid state forms of vilazodone and vilazodone hydrochloride” (Assia Chemical Industries Ltd., priority 2011, dated 2016).
Counter-ions that a name gives are not always drawn.

How the values were obtained:
Type in all cases: physicochemical
[1] = Compressibility: pressing samples with 1 ton for 60 minutes; conditions: for appearance of palettes after pressing: pressed with 1 ton for 60 minutes
[2] = Chemical and polymorphic stability on exposure to heating and mechanical pressure; conditions: when exposed to heating and to mechanical pressure; hydrochloride
[3] = Hausner ratio (tapped density / poured (bulk) density)
From the text: These properties enable improve tablet density uniformity, weight variation, homogeneity, die fill characteristics, dimensional control and ejection characteristics.

[4] = Polymorphic stability on exposure to humidity; conditions: 100% relative humidity for at least a few moths
From the text: Form Lambda doesn't convert to another polymorph when exposed to humidity.

Wettability = assay: Wettability

chemical and polymorphic stability [2] | Hausner ratio (ratio between tapped density and poured (bulk) density) [3] | conversion to another polymorph when exposed to humidity [4] | compressibility ([1]; API pressed into a palette) | degree of wettability (Wettability) | Compound | appearance of palettes after pressing [1]
high chemical and polymorphic stability | – | – | – | – | N#Cc1ccc2[nH]cc(CCCCN3CCN(c4ccc5oc(C(N)=O)cc5c4)CC3)c2c1 [Form Mu, Vilazodone hydrochloride] | high structural order and shape without visible lamination on the surface or breaking of the palettes
– | favorable Hausner ratio | remains unchanged | – | – | N#Cc1ccc2[nH]cc(CCCCN3CCN(c4ccc5oc(C(N)=O)cc5c4)CC3)c2c1 [Form Lambda, Vilazodone hydrochloride] | –
chemically and polymorphically stable | – | – | excellent compressibility | enhanced degree of wettability | N#Cc1ccc2[nH]cc(CCCCN3CCN(c4ccc5oc(C(N)=O)cc5c4)CC3)c2c1 [Form Alpha, Vilazodone hydrochloride] | high structural order and shape without visible lamination on the surface or breaking of the palettes
